Laboratory results from BindingDB's records for doi:10.1016/j.bmcl.2004.01.072 (Array Biopharma, 2004).

Test: Inhibition of MDC-stimulated chemotaxis in transfected murine cell line expressing human chemokine receptor 4

Row | Compound | EC50 [µM]
1 | C[C@@H](NC(=O)C[C@H]1S[C@H](c2ccc(Cl)cc2Cl)N(CC(=O)NCCCN2CCCCC2)C1=O)c1cccc2ccccc12 [2-{(2R,5R)-2-(2,4-Dichloro-phenyl)-5-[((R)-1-naphthalen-1-yl-ethylcarbamoyl)-methyl]-4-oxo-thiazolidin-3-yl}-N-(3-piperidin-1-yl-propyl)-acetamide] | 0.6
2 | Cc1c(Cl)cccc1CNC(=O)C[C@H]1S[C@H](c2ccc(Cl)cc2Cl)N(CC(=O)NCCCN2CCCCC2)C1=O [2-[(2R,5R)-5-[(3-Chloro-2-methyl-benzylcarbamoyl)-methyl]-2-(2,4-dichloro-phenyl)-4-oxo-thiazolidin-3-yl]-N-(3-piperidin-1-yl-propyl)-acetamide] | 2
